Measured values as given in ChEMBL document CHEMBL2439955, “Synthesis and biological evaluation of 5-carbamoyl-2-phenylpyrimidine derivatives as novel and potent PDE4 inhibitors” (Bioorg Med Chem, 2013).
pIC50: −log10 of the molar value.

System: Mus musculus
Assay: Inhibition of LPS-induced pulmonary neutrophilia in BALB/c mouse assessed as reduction of neutrophils level in bronchoalveolar lavage fluid at 1 mg/kg administered intratracheally 30 mins before LPS challenge measured after 4 to 5 hrs
Assay type: functional
Conditions: route endotracheal

| SMILES | inhibition in vivo at 1 mg/kg [%] |
| --- | --- |
| O=C(Nc1c(Cl)cncc1Cl)c1ccc(OC(F)F)c(OCC2CC2)c1 [ROFLUMILAST] | 47 |
| CC(C)CNC(=O)Cc1ccc(Nc2nc(-c3ccccc3)nc3c2C(=O)NCC3)cc1 | 41 |

Biological target: T1, 3',5'-cyclic-AMP phosphodiesterase 4B (Homo sapiens, UniProt Q07343)
Assay: Inhibition of recombinant human PDE4B using cAMP as substrate at 10 uM after 30 mins
Conditions: not given

T1 sequence (Q07343 whole entry): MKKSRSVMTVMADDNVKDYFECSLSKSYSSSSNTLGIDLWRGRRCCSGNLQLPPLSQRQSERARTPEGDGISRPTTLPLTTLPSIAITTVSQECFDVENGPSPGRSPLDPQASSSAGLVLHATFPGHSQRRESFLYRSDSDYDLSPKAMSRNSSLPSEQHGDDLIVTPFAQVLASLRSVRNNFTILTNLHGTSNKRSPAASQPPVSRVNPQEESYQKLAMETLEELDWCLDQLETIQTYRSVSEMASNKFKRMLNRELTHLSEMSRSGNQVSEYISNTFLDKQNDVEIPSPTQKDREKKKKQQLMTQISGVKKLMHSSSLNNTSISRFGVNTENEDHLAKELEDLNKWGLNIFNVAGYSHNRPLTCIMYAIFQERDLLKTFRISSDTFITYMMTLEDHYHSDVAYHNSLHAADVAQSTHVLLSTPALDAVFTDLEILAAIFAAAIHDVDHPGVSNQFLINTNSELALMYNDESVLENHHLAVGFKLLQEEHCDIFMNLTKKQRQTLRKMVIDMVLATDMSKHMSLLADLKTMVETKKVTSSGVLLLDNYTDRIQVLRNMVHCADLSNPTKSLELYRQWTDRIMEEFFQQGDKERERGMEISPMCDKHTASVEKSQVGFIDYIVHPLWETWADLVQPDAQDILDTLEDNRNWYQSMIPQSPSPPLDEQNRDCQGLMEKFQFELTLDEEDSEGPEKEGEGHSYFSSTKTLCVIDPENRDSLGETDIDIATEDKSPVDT

| SMILES | inhibition [%] |
| --- | --- |
| CN(C)C(=O)c1cnc(-c2ccccc2)nc1Nc1ccc(CC(=O)O)cc1 | 8 |

System: Splenocyte
Assay: Inhibition of LPS-induced TNFalpha production in Balb/c mouse splenocytes after 18 to 24 hrs by AlphaLISA assay
Assay type: functional, cell-based
Conditions: not given

| SMILES | pIC50 |
| --- | --- |
| NC(=O)c1cnc(-c2ccccc2)nc1Nc1ccc(CC(=O)NO)cc1 | 7.37 |
| CC(C)(C)CNC(=O)Cc1ccc(Nc2nc(-c3ccc4[nH]ccc4c3)ncc2C(N)=O)cc1 | 6.08 |
| CN(C)c1ncc(C(N)=O)c(Nc2ccc(CC(=O)NCC(C)(C)C)cc2)n1 | 8.15 |
| CS(=O)(=O)NC(=O)Cc1ccc(Nc2nc(-c3ccccc3)ncc2C(N)=O)cc1 | 5.32 |
| CC(C)(C)NC(=O)Cc1ccc(Nc2nc(-c3ccccc3)ncc2C(N)=O)cc1 | 7.31 |
| NC(=O)Cc1ccc(Nc2nc(-c3ccccc3)ncc2C(N)=O)cc1 | 7.13 |
| NC(=O)c1cnc(-c2ccccc2)nc1Nc1ccc(CC(=O)O)cc1 | 6.16 |
| CC(C)(C)CNC(=O)Cc1ccc(Nc2nc(-c3ccoc3)ncc2C(N)=O)cc1 | 6.00 |
| O=C(Nc1c(Cl)cncc1Cl)c1ccc(OC(F)F)c(OCC2CC2)c1 [ROFLUMILAST] | 8.92 |
| CC(C)(C)CNC(=O)Cc1ccc(Nc2nc(-c3cccnc3)ncc2C(N)=O)cc1 | 7.64 |
| CCCNC(=O)Cc1ccc(Nc2nc(-c3ccccc3)ncc2C(N)=O)cc1 | 7.33 |
| CC(C)(C)CNC(=O)Cc1ccc(Nc2nc(N3CCCC3)ncc2C(N)=O)cc1 | 8.42 |
| CC(C)CNC(=O)Cc1ccc(Nc2nc(-c3ccccc3)nc3c2C(=O)NCC3)cc1 | 9.68 |
| O=C(O)Cc1ccc(Nc2nc(-c3ccccc3)nc3c2C(=O)NCC3)cc1 | 6.34 |
| CC(C)(C)CNC(=O)Cc1ccc(Nc2nc(-c3ccccc3)ncc2C(N)=O)cc1 | 8.52 |
| CC(C)CNC(=O)Cc1ccc(Nc2nc(-c3ccccc3)ncc2C(N)=O)cc1 | 7.92 |
| C=C(C)c1ncc(C(N)=O)c(Nc2ccc(CC(=O)NCC(C)(C)C)cc2)n1 | 8.02 |
| NC(=O)c1cnc(-c2ccccc2)nc1Nc1ccc(CC(=O)NCC2CC2)cc1 | 7.74 |

System: Mus musculus
Assay: Inhibition of LPS-induced pulmonary neutrophilia in ip dosed BALB/c mouse assessed as reduction of neutrophils level in bronchoalveolar lavage fluid administered 30 mins before LPS challenge measured after 4 to 5 hrs
Assay type: functional
Conditions: read-out: ID50 (the source's name)

| SMILES | ED50 [mg/kg] |
| --- | --- |
| CC(C)(C)CNC(=O)Cc1ccc(Nc2nc(-c3ccccc3)ncc2C(N)=O)cc1 | 16 |

System: not listed separately
Assay: Metabolic stability of the compound in mouse liver microsomes after 30 mins
Assay type: ADME, Microsome
Conditions: read-out: Stability

| SMILES | remaining at 0.5 h [%] |
| --- | --- |
| CC(C)(C)CNC(=O)Cc1ccc(Nc2nc(-c3ccccc3)ncc2C(N)=O)cc1 | 52 |

System: not listed separately
Assay: Terminal half life in mouse at 10 mg/kg, ip
Assay type: ADME, organism-based
Set-up: dose 10 mg/kg, route intraperitoneal
Conditions: in vivo, read-out: beta t1/2 (converted)

| SMILES | half-life [h] |
| --- | --- |
| CC(C)(C)CNC(=O)Cc1ccc(Nc2nc(-c3ccccc3)ncc2C(N)=O)cc1 | 3.2 |

Biological target: T1, 3',5'-cyclic-AMP phosphodiesterase 4B
Assay: Inhibition of recombinant human PDE4B using cAMP as substrate at 3 uM after 30 mins
Conditions: not given

| SMILES | inhibition [%] |
| --- | --- |
| O=C(O)Cc1ccc(Nc2nc(-c3ccccc3)ncc2C(=O)NO)cc1 | 42 |

Biological target: T1, 3',5'-cyclic-AMP phosphodiesterase 4B
Assay: Inhibition of recombinant human PDE4B using cAMP as substrate after 30 mins
Conditions: not given

| SMILES | pIC50 |
| --- | --- |
| NC(=O)c1cnc(-c2ccccc2)nc1Nc1ccc(CC(=O)NO)cc1 | 8.15 |
| CC(C)(C)CNC(=O)Cc1ccc(Nc2nc(-c3ccc4[nH]ccc4c3)ncc2C(N)=O)cc1 | 8.09 |
| CN(C)c1ncc(C(N)=O)c(Nc2ccc(CC(=O)NCC(C)(C)C)cc2)n1 | 7.80 |
| CS(=O)(=O)NC(=O)Cc1ccc(Nc2nc(-c3ccccc3)ncc2C(N)=O)cc1 | 6.31 |
| CC(C)(C)CNC(=O)Cc1ccc(Nc2nc(NN3CCCCC3)ncc2C(N)=O)cc1 | 5.19 |
| CC(C)(C)NC(=O)Cc1ccc(Nc2nc(-c3ccccc3)ncc2C(N)=O)cc1 | 6.96 |
| NC(=O)Cc1ccc(Nc2nc(-c3ccccc3)ncc2C(N)=O)cc1 | 6.92 |
| NC(=O)c1cnc(-c2ccccc2)nc1Nc1ccc(CC(=O)O)cc1 | 6.70 |
| CC(C)(C)CNC(=O)Cc1ccc(Nc2nc(-c3ccoc3)ncc2C(N)=O)cc1 | 7.96 |
| CNC(=O)c1cnc(-c2ccccc2)nc1Nc1ccc(CC(=O)O)cc1 | 5.09 |
| CC(C)(C)CNC(=O)Cc1ccc(Nc2nc(-c3cccnc3)ncc2C(N)=O)cc1 | 7.54 |
| CCCNC(=O)Cc1ccc(Nc2nc(-c3ccccc3)ncc2C(N)=O)cc1 | 6.92 |
| CC(C)(C)CNC(=O)Cc1ccc(Nc2nc(-c3cncnc3)ncc2C(N)=O)cc1 | 6.96 |
| CC(C)(C)CNC(=O)Cc1ccc(Nc2nc(N3CCCC3)ncc2C(N)=O)cc1 | 7.89 |
| CC(C)CNC(=O)Cc1ccc(Nc2nc(-c3ccccc3)nc3c2C(=O)NCC3)cc1 | 8.14 |
| O=C(O)Cc1ccc(Nc2nc(-c3ccccc3)nc3c2C(=O)NCC3)cc1 | 7.33 |
| CC(C)(C)CNC(=O)Cc1ccc(Nc2nc(-c3ccccc3)ncc2C(N)=O)cc1 | 8.08 |
| CC(C)CNC(=O)Cc1ccc(Nc2nc(-c3ccccc3)ncc2C(N)=O)cc1 | 7.96 |
| CSc1nc(-c2ccccc2)nc(Nc2ccc(CC(=O)O)cc2)c1C(N)=O | 5.70 |
| C=C(C)c1ncc(C(N)=O)c(Nc2ccc(CC(=O)NCC(C)(C)C)cc2)n1 | 8.43 |
| NC(=O)c1cnc(-c2ccccc2)nc1Nc1ccc(CC(=O)NCC2CC2)cc1 | 7.80 |
| Cc1nc(-c2ccccc2)nc(Nc2ccc(CC(=O)O)cc2)c1C(N)=O | 5.40 |

System: not listed separately
Assay: AUC in mouse at 10 mg/kg, ip
Assay type: ADME, organism-based
Set-up: dose 10 mg/kg, route intraperitoneal
Conditions: plasma

| SMILES | AUC [ng·h/mL] |
| --- | --- |
| CC(C)(C)CNC(=O)Cc1ccc(Nc2nc(-c3ccccc3)ncc2C(N)=O)cc1 | 3990 |

Biological target: T1, 3',5'-cyclic-AMP phosphodiesterase 4B
Assay: Inhibition of recombinant human PDE4B using cAMP as substrate at 1 uM after 30 mins
Conditions: not given

| SMILES | inhibition [%] |
| --- | --- |
| CC(C)(C)CNC(=O)Cc1ccc(Nc2nc(-c3ccsc3)ncc2C(N)=O)cc1 | 18 |

System: not listed separately
Assay: Octanol-phosphate buffered saline distribution coefficient, log D of the compound at pH 7.4
Assay type: physicochemical
Conditions: not given

| SMILES | logD |
| --- | --- |
| CC(C)(C)CNC(=O)Cc1ccc(Nc2nc(-c3ccccc3)ncc2C(N)=O)cc1 | 4.9 |

System: not listed separately
Assay: Cmax in mouse at 10 mg/kg, ip
Assay type: ADME, organism-based
Set-up: dose 10 mg/kg, route intraperitoneal
Conditions: in vivo

| SMILES | Cmax [ng/mL] |
| --- | --- |
| CC(C)(C)CNC(=O)Cc1ccc(Nc2nc(-c3ccccc3)ncc2C(N)=O)cc1 | 1490 |
